According to patent publication US7186413B2, “Hydrogels and water soluble polymeric carriers for drug delivery” (The Regents of the University of Michigan, priority 1998, dated 2007):

How the values were obtained:
[1] = determination of the drug incorporated (retained) in PAG hydrogel; type: physicochemical; details: lyophilized, crushed PAG hydrogel extracted with water
Protocol: The reaction described in Example 2 was utilized to incorporate daunomycin into hydrogels for localized drug delivery. HPLC was used to determine the amount of daunomycin that reacted with adipic dihydrazide before the addition of PAG. Mixtures of daunomycin and adipic dihydrazide were analyzed and found to contain 88.5% of the daunomycin-adipic dihydrazide conjugate and 11.5% of free drug (FIG. 21). The amount of daunomycin that was covalently incorporated into the hydrogel was next determined by quantifying the amount of free drug in the hydrogel. Hydrogels containing daunomycin or trypan blue were synthesized, frozen, lyophilized, and crushed to form powders. The free drug was then dissolved in water and the resulting mixture was filtered to remove any fine particles. The concentration of the free drug was then determined spectrophotometrically. […] Only two percent of the trypan blue was retained in the hydrogel. In comparison, 86.9±0.1% of daunomycin remained in the gelatinous particles. Moreover, hydrogels containing trypan blue that were incubated in DMEM released the entire drug within 24 hours. These findings clearly indicate that daunomycin is covalently coupled to the hydrogel through the adipic dihydrazide molecule. The daunomycin incorporation in the hydrogels correlates well with the percentage of daunomycin-adipic dihydrazide conjugate that was determined by HPLC analysis. […]

KB cells = experiment: standard cytotoxicity assay with KB cells
Protocol: The activity of covalently bound daunomycin released from 6 wt % PAG gels was tested using KB cells in a standard cytotoxicity assay. Gels containing either zero, 13.3 or 30 mg of drug per gram of PAG were incubated in sterile media at 37° C. which was tested and replaced weekly.
The biocompatibility of PAG has been tested in vitro.
Sodium periodate, adipic dihydrazide, ethylene glycol, and calcium chloride were purchased from Aldrich Chemical Company (Milwaukee, Wis.) and were used as received. Daunomycin hydrochloride was purchased from Fluka Chemical Corporation (Ronkonkoma, N.Y.). Dulbecco's Modified Eagle's Medium (DMEM) was purchased from Life Technologies (Grand Island, N.Y.). […] The elution of the drug was monitored at 480 nm. • Synthesis of the poly(aldehyde guluronate), PAG. […] The product was analyzed by ^1H-NMR, FTIR, and the aldehyde content was quantified using trinitrobenzene sulfonic acid. • Preparation of cross-linked PAG hydrogels. […] To quantify the amount of daunomycin that is incorporated in the gels, two sets of hydrogels were formed as described above. […] The solutions were then sonicated for 30 minutes, quantitatively transferred to 5 ml volumetric flasks, and diluted with double distilled water. […]

[2] = in vitro release of daunomycin from cross-linked PAG hydrogels; type: physicochemical
[3] = release of ionically bound or physically entrapped drugs and dyes from hydrogels; type: physicochemical
Protocol: Samples containing 9.8, 19.5, and 39.1 mg brilliant blue per gram of PAG either with or without calcium (which enhances gelling) were studied over a period of several weeks.

## COc1cccc2c1C(=O)c1c(O)c3c(c(O)c1C2=O)C[C@@](O)(C(C)=O)C[C@@H]3O[C@H]1C[C@H](N)[C@H](O)[C@H](C)O1 [daunomycin]
[1]
  fraction retained in the hydrogel particles: 86.9±0.1%
KB cells; Homo sapiens, KB, 48 h
  IC50: 202 ± 48 nM
[2]; 6% w/w PAG, 150 mM AAD, 40 mM calcium
  drug released during the first six weeks: 40%
[2]; 6% w/w PAG, 150 mM AAD, 40 mM calcium, first six weeks
  release rate of drug from hydrogel: 0.8 % drug per day
[2]; 6% w/w PAG, 150 mM AAD, absence of calcium
  time to release of all incorporated drug: four
[2]; 6% w/w PAG, 150 mM adipic dihydrazide, acidic medium
  release rate of drug from hydrogel: 1.8 % per day
[2]; 6% w/w PAG, 150 mM adipic dihydrazide, neutral condition
  release rate of drug from hydrogel: 1 % per day
[2]; 6 wt % PAG, 8 mM daunomycin, 150 mM AAD
  time to release of total incorporated drug: thirty
[2]; 6 wt % PAG, 8 mM daunomycin, 150 mM AAD, first ten days, DMEM 37° C.
  release rate of drug from hydrogel: 1 % drug per day
[2]; 6 wt % PAG, 8 mM daunomycin, 150 mM AAD, following twenty-two days
  release rate of drug from hydrogel: approximately 4 % per day
[2]; 6 wt % PAG, 50 mM AAD cross-linker
  time to release of total drug loaded: two
[2]; 6 wt % PAG, 100 mM AAD
  time to release of total drug loaded: two
[2]; 6 wt % PAG, elevated AAD concentrations
  time to release of total drug loaded: more than six

## CN(Cc1cnc2nc(N)nc(N)c2n1)c1ccc(C(=O)N[C@@H](CCC(=O)O)C(=O)O)cc1 [Methotrexate]
[3]; physically entrapped, diffusion, all conditions
  time to quantitative release from the hydrogels: ≤ 5 days

## Cc1cc(-c2ccc(/N=N/c3c(S(=O)(=O)O)cc4cc(S(=O)(=O)O)cc(N)c4c3O)c(C)c2)ccc1/N=N/c1c(S(=O)(=O)O)cc2cc(S(=O)(=O)O)cc(N)c2c1O [trypan blue]
[1]
  fraction retained in the hydrogel particles: two
[3]; PAG hydrogels incubated in DMEM
  time to release of the entire drug from hydrogel: ≤ 24 h

## O=C1c2c(O)ccc(O)c2C(=O)c2c(NCCNCCO)ccc(NCCNCCO)c21 [Mitoxantrone]
KB cells; mixed with AAD
  cytotoxicity of drug alone versus mixed with AAD (prodrug formation, FIG. 9): not found to form a prodrug
